According to the supplement of paper PMC10307832:

What was measured:
Assay in all cases: relative viability (nuclei count vs DMSO), 5 days (fraction); higher = more cells survive
Cabozantinib + Olaparib = compound: COc1cc2nccc(Oc3ccc(NC(=O)C4(C(=O)Nc5ccc(F)cc5)CC4)cc3)c2cc1OC [Cabozantinib] + O=C(c1cc(Cc2n[nH]c(=O)c3ccccc23)ccc1F)N1CCN(C(=O)C2CC2)CC1 [Olaparib] (partner 8 µM)
Outline: (§1)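 A single step with final 0.05% Triton X-100, 1% formaldehyde and 1 ug/ml Hoechst fixed the cells and stained nuclei 5 days after treatment. Lung cancer cell lines in 1536-well plates had been treated by pin tool the day after seeding with one drug alone or a fixed anchor-drug dose plus five library-drug doses (not always all listed) in √10 steps, and nuclei were counted on 4× images. Relative viability is the ratio of nuclei in treated wells to nuclei in vehicle wells, taken as the median of duplicate plates.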

Zosuquidar + Crizotinib = compound: O[C@@H](COc1cccc2ncccc12)CN1CCN([C@@H]2c3ccccc3[C@@H]3[C@H](c4ccccc42)C3(F)F)CC1 [Zosuquidar] + C[C@@H](Oc1cc(-c2cnn(C3CCNCC3)c2)cnc1N)c1c(Cl)ccc(F)c1Cl [Crizotinib] (partner 1 µM)
Outline: as §1

Kobe2602 + Decitabine = compound: C1=CC(=CC=C1NC(=S)NNC2=C(C=C(C=C2[N+](=O)[O-])C(F)(F)F)[N+](=O)[O-])F [Kobe2602] + Nc1ncn([C@H]2C[C@H](O)[C@@H](CO)O2)c(=O)n1 [Decitabine] (partner 2 µM)
Outline: as §1

Zosuquidar + Linsitinib = compound: O[C@@H](COc1cccc2ncccc12)CN1CCN([C@@H]2c3ccccc3[C@@H]3[C@H](c4ccccc42)C3(F)F)CC1 [Zosuquidar] + C[C@]1(O)C[C@@H](c2nc(-c3ccc4ccc(-c5ccccc5)nc4c3)c3c(N)nccn32)C1 [Linsitinib] (partner 1 µM)
Outline: as §1

Cell Line	relative viability (Cabozantinib + Olaparib; first compound 0.02 µM)	relative viability (Cabozantinib + Olaparib; first compound 0.06325 µM)	relative viability (Cabozantinib + Olaparib; first compound 0.2 µM)	relative viability (Cabozantinib + Olaparib; first compound 0.6325 µM)	relative viability (Cabozantinib + Olaparib; first compound 2 µM)	relative viability (Zosuquidar + Crizotinib; first compound 0.01 µM)	relative viability (Zosuquidar + Crizotinib; first compound 0.03162 µM)	relative viability (Zosuquidar + Crizotinib; first compound 0.1 µM)	relative viability (Zosuquidar + Crizotinib; first compound 0.3162 µM)	relative viability (Zosuquidar + Crizotinib; first compound 1 µM)	relative viability (Kobe2602 + Decitabine; first compound 0.2 µM)	relative viability (Kobe2602 + Decitabine; first compound 0.6325 µM)	relative viability (Kobe2602 + Decitabine; first compound 2 µM)	relative viability (Kobe2602 + Decitabine; first compound 6.325 µM)	relative viability (Kobe2602 + Decitabine; first compound 20 µM)	relative viability (Zosuquidar + Linsitinib; first compound 0.01 µM)	relative viability (Zosuquidar + Linsitinib; first compound 0.03162 µM)	relative viability (Zosuquidar + Linsitinib; first compound 0.1 µM)	relative viability (Zosuquidar + Linsitinib; first compound 0.3162 µM)	relative viability (Zosuquidar + Linsitinib; first compound 1 µM)
NCI-H2347	0.641	0.549	0.525	0.493	0.446	0.786	0.75	0.575	0.794	0.717	0.648	0.618	0.594	0.569	0.661	0.968	1	0.834	1.01	1.06
NCI-H2405	0.859	1.01	0.931	0.899	0.804	0.889	0.82	0.757	0.819	0.825	0.737	0.749	0.732	0.745	0.806	0.984	0.878	0.784	0.969	0.983
NCI-H3122	0.636	0.655	0.617	0.527	0.633	0.271	0.274	0.24	0.275	0.252	0.46	0.496	0.471	0.402	0.391	1.01	0.939	0.938	1.07	0.959
PC-3 [JPC-3]	1.23	1.31	–	1.2	1.14	0.861	0.981	0.878	0.964	0.946	0.856	0.895	0.84	0.754	0.787	0.945	0.956	0.817	0.929	0.981
PC-14	0.254	0.33	–	0.269	0.307	0.837	1.02	0.801	0.938	0.759	0.224	0.201	0.235	0.234	0.247	0.918	0.97	0.904	0.94	1.02
RERF-LC-KJ	1.06	1.05	0.96	0.824	0.921	0.81	0.799	0.824	0.873	0.806	0.648	0.69	0.576	0.591	0.37	0.858	0.903	0.876	0.932	0.906
SK-LU-1	0.605	0.559	0.488	0.437	0.38	0.974	0.981	1.1	0.932	0.911	0.672	0.702	0.631	0.581	0.64	1.1	1.3	1.39	1.22	0.874
SK-MES-1	0.767	0.845	0.689	0.684	0.694	0.977	0.99	0.955	1.03	1.02	0.411	0.378	0.335	0.396	0.321	1.01	1.08	0.991	0.979	1.1
SW 1573	0.455	0.516	0.447	0.488	0.384	0.873	0.728	0.791	0.775	0.833	0.483	0.614	0.453	0.493	0.318	0.713	0.728	0.793	0.925	0.859
